The results in this text go back to a melting point compilation (Tetko et al.).

By melting point is commonly meant the temperature of the solid-liquid transition. `Cn1cncc1C#N` gave a melting point of 48 to 50 °C.

On to `Nc1ccc2c(c1)C(=O)N(c1ccc(F)cc1)C2=O`, for which the melting point is 211 to 213 °C. `O=[N+]([O-])c1ccc2nc(Cl)ccc2c1`: the melting point was in the range of 224 to 226 °C. Take `Cc1ccc(C(C)O)cc1[N+](=O)[O-]` (centres undefined): the melting point lay within 48 to 50 °C. `NCCCc1nc(C2CC2)n[nH]1` came in with a melting point of 207 to 209 °C. Molecule `CC(C)(C)C(=O)COc1ccc([N+](=O)[O-])cc1Cl` registered a melting point of 114 to 116 °C.

Turning to `O=C1NCCc2ccc(F)cc21`, the melting point lay within 119 to 121 °C. For `NNC(=O)NCc1cccc(C(F)(F)F)c1`, the melting point fell in the range of 86 to 88 °C. The molecule `COCCOc1cccc(C(=O)O)c1` gave a melting point of 80 to 82 °C. Molecule `NC(=S)N1CCCCCC1` registered a melting point of 151 to 153 °C. For `O=C(O)CSc1nccn1-c1ccc(Br)cc1` the value was 203 to 205 °C; for `CC(Cl)C(=O)Nc1ccc(Cl)cc1C(F)(F)F` (centres undefined), 107 to 109 °C; for `Cc1nc2cc(N)ccc2n1C`, 164 to 166 °C.

The molecule `O=C(O)CNC(=O)CC12CC3CC(CC(C3)C1)C2` registered a melting point of 165 to 167 °C.

As for `CCOC(=O)c1c(N=C=S)sc(C)c1C`, the melting point is 67 to 69 °C. For the molecule `COC(=O)c1nc2n(n1)-c1ccccc1S(=O)(=O)N2`, the melting point was 262 to 264 °C. The molecule `O=C(O)CCc1nc2cc(Br)ccc2s1` had a melting point of 154 to 156 °C.

In the case of `O=S(=O)(c1ccc(N=C=S)cc1)N1CCOCC1`, the melting point is 99 to 101 °C. For `CC(=O)c1ccc(F)cc1OC(F)F` the value was 55 to 57 °C; for `CCNc1cc(C(=O)O)ccn1`, 291 to 293 °C; for `Cn1nnnc1Sc1ccc(Cl)cc1N`, 128 to 130 °C. In turn, `COc1ccc(N)cc1CO` showed a melting point of 115 to 117 °C. The molecule `O=C1CCn2cccc21` displayed a melting point of 54 to 56 °C.

In the case of `O=Cc1ccc(OCCBr)c(Cl)c1`, the melting point is 61 to 63 °C. With `O=C(O)c1cc(F)cnc1Cl`, the melting point was in the range of 143 to 144 °C. `Cc1sc(=O)n(CC(=O)O)c1-c1ccc(F)cc1` came in with a melting point of 139 to 141 °C. In turn, `Cc1cc(Br)cn2c(CO)cnc12` came in with a melting point of 174 to 176 °C. For the molecule `Cc1ccc(O)c(C(=O)N2CCC(C(=O)O)CC2)c1`, the melting point was in the range of 184 to 186 °C. In turn, `Cc1cc(C)cc(-c2cc(N)[nH]n2)c1` displayed a melting point of 75 to 77 °C.

For `NC(CCN1CCCCC1)=NO`, the melting point fell in the range of 137 to 139 °C. Consider `O=C(Nc1cccc(F)c1)C1CSCN1` (centres undefined), for which the melting point lay in the range of 222 to 224 °C. With `CC(O)c1cc[nH]n1` (centres undefined), the melting point fell in the range of 58 to 60 °C. For `Nc1[nH]ncc1-c1ccccc1Br` the value was 129 to 131 °C. For `Clc1c(Br)ccc2ccccc12` the value was 51 to 53 °C; for `CCC(C)(N)C(=O)O` (centres undefined), 276 to 278 °C; for `CC1(C2CC2)NC(=O)NC1=O` (centres undefined), 168 to 170 °C.

Molecule `CC(C)(C)OC(=O)N1CCC2(C1)NC(=O)NC2=O` (centres undefined) came in with a melting point of 214 to 216 °C. In the case of `CC(C)C(Nc1ccc(C(F)(F)F)cc1Cl)C(=O)O` (centres undefined), the melting point fell in the range of 128 to 132 °C. `OCc1ccc(CCl)cc1` yielded a melting point of 55 to 57 °C. `CC(C)c1ncc(C(=O)O)s1` came in with a melting point of 133 to 135 °C. Molecule `CCN(CC)S(=O)(=O)c1ccc(Br)c(C(=O)O)c1` registered a melting point of 141 to 145 °C. The result for `Cc1sc(=O)[nH]c1-c1ccccc1` reads 171 to 173 °C; that for `CC(=O)Nc1ccc(CCO)cc1`, 106 to 108 °C. With `Cc1onc(CC(=O)O)c1C#N`, the melting point lay in the range of 59 to 61 °C.

Molecule `CC(N)c1ccc(-n2ccnc2)cc1` (centres undefined) yielded a melting point of 50 to 52 °C. Turning to `CN(C)c1ccc(S(=O)(=O)N(C)C)cc1N`, the melting point fell in the range of 143 to 145 °C.

`O=C(O)c1cc(Br)ccc1F` yielded a melting point of 179 to 182 °C. With `Cc1nc2nnnn2c(C)c1CCC(=O)O`, the melting point lay in the range of 187 to 189 °C. `N#CCCN1C(=O)NC2(CCCC2)C1=O` yielded a melting point of 104 to 106 °C. For `O=c1[nH]c(-c2cccc(Oc3ccccc3)c2)no1` the value was 189 to 191 °C.

The molecule `O=[N+]([O-])c1cc(F)c(S(=O)(=O)Cl)c(F)c1` yielded a melting point of 73 to 75 °C. For `CN(C)CCOc1cc(C(=O)O)ccn1`, the melting point was in the range of 173 to 175 °C. For `CCN(CC)C(=O)c1ccccc1N`, the melting point lay in the range of 71 to 73 °C. The result for `N#Cc1cccnc1NCCO` reads 79 to 81 °C; that for `Cc1cc(C(C)(C)C)cc(C)c1S(=O)(=O)Cl`, 113 to 115 °C. `CC(C)(C)OC(=O)NC1CCCN(Cc2ccccc2)C1` (centres undefined) displayed a melting point of 118 to 120 °C. `O=CCCc1nc2ccccc2o1` displayed a melting point of 62 to 64 °C. Molecule `O=C(O)c1c(Cl)cc(C(F)(F)F)cc1Cl` returned a melting point of 140 to 142 °C.

On to `Cc1cc(-n2c(C)cc(C(=O)CCl)c2C)no1`, for which the melting point was 110 to 112 °C.

The molecule `CC(C(=O)OCc1ccccc1)S(N)(=O)=O` (centres undefined) had a melting point of 83 to 85 °C. Take `ClCc1csc(COc2ccc(Cl)cc2)n1`: the melting point fell in the range of 75 to 77 °C. Take `Cc1ccc(-c2csc(NCCCC(=O)O)n2)s1`: the melting point fell in the range of 110 to 112 °C. On to `CC(C)CCNC(=O)C1CSCN1` (centres undefined), for which the melting point fell in the range of 162 to 164 °C. Regarding `CS(=O)(=O)c1ccc(Cl)s1`, the melting point fell in the range of 69 to 71 °C. For `OCc1cnns1` the value was 34 to 36 °C.

`O=c1[nH]nc2ccc(Cl)nn12` came in with a melting point of 269 to 271 °C. `CC(C)NS(=O)(=O)c1ccc(N)cc1` displayed a melting point of 112 to 114 °C.

Regarding `O=C(CCc1ccccc1)Cc1ccccc1`, the melting point fell in the range of 41 to 43 °C. Regarding `CC(=O)c1ccc(-c2ccc(C=O)o2)cc1`, the melting point lay within 133 to 135 °C.

Take `COc1ccc(C)cc1NCCCC(=O)O`: the melting point fell in the range of 99 to 101 °C. `COCC(C)(O)C(=O)O` (centres undefined) showed a melting point of 53 to 55 °C. For the molecule `Cn1cnc([N+](=O)[O-])c1Br`, the melting point was in the range of 177 to 179 °C. For `COc1ccc([N+](=O)[O-])cc1S(=O)(=O)Cl` the value was 85 to 87 °C; for `C=CCn1c(S)nc2sc3c(c2c1=O)CCC(C)C3` (centres undefined), 228 to 230 °C.

Molecule `O=C1CCCC1Cc1ccccc1[N+](=O)[O-]` (centres undefined) registered a melting point of 38 to 40 °C.

`N#Cc1cc(Cl)ccc1S(=O)(=O)Cl` came in with a melting point of 97 to 99 °C. In turn, `Cc1ccccc1-n1c(S)nc2scc(-c3ccccc3)c2c1=O` displayed a melting point of 157 to 159 °C.

As for `O=C1CN=C(S)N1Cc1ccccc1`, the melting point was under 17 °C. Consider `Nc1nc2c(s1)CCCCCC2`, for which the melting point lay within 202 to 204 °C.

`Cc1cc(=O)[nH]c(SCC(=O)O)c1C#N` returned a melting point of 198 to 200 °C. `Nc1ccc(-c2ncco2)cc1` returned a melting point of 104 to 106 °C. For the molecule `O=C(O)c1ccc(S(=O)(=O)Cl)c(F)c1`, the melting point lay in the range of 188 to 190 °C.

For `CC(O)(C(=O)O)C1CC1` (centres undefined), the melting point lay in the range of 39 to 41 °C.

Regarding `CC(C)(C)c1ccc(C=C[N+](=O)[O-])cc1`, the melting point was 44 to 46 °C.

Molecule `Nc1ccn(Cc2ccsc2)n1` showed a melting point of 43 to 45 °C. For `Nc1cccc(NC(=O)Nc2cccc(C(F)(F)F)c2)c1` the value was 180 to 182 °C. For `Nc1ncc(Br)nc1C(=O)O` the value was 172 to 174 °C; for `N#Cc1cc(F)ccc1N`, 92 to 96 °C; for `CCc1ccc2c(CC(=O)O)coc2c1`, 82 to 84 °C. Turning to `CCN(CC)S(=O)(=O)c1ccc(C(=O)CBr)cc1`, the melting point is 79 to 81 °C.

For the molecule `CCNC(=O)COc1cccc(CN)c1`, the melting point is 62 to 64 °C.

With `Cc1ccc(C(=O)c2c(N)sc3c2CCC3)c(C)c1`, the melting point is 163 to 165 °C. Molecule `Cc1ccc(N2C(=O)NC(=O)C2C)cc1` (centres undefined) displayed a melting point of 110 to 112 °C. As for `Cc1cccc(Oc2ncccc2N)c1C`, the melting point lay in the range of 147 to 149 °C. `CCc1n[nH]c(C(=O)O)c1Cl` had a melting point of 199 to 201 °C. In the case of `Cc1sc(N)nc1-c1ccc(F)cc1`, the melting point lay within 122 to 124 °C. The molecule `COC(=O)c1cc(S(=O)(=O)Cl)c(C(=O)OC)s1` gave a melting point of 129 to 131 °C. For the molecule `COc1cc2c(cc1NC(=O)OCC(F)(F)F)oc1ccccc12`, the melting point lay in the range of 122 to 124 °C.

Molecule `CCOC(=O)c1c(-c2ccc(C)o2)csc1N` returned a melting point of 93 to 95 °C. The molecule `NC(=O)CCCC(=O)O` registered a melting point of 83 to 85 °C. The result for `COc1ncccc1C(N)=O` reads 130 to 132 °C.

Molecule `O=C(O)C1Cc2ccccc2CN1S(=O)(=O)c1ccccc1` (centres undefined) came in with a melting point of 138 to 140 °C. `O=S(=O)(c1cccc2c1N=S=N2)N1CCNCC1` had a melting point of 178 to 183 °C.

The molecule `CCOc1ccccc1CCC(=O)O` displayed a melting point of 70 to 72 °C. For `CCOc1ccccc1OCC(=O)O` the value was 44 to 46 °C; for `N#Cc1ccc(OCC(=O)O)cc1`, 177 to 179 °C; for `Cc1ccc(-c2cnc(CCC(=O)O)o2)cc1C`, 159 to 161 °C. For `O=Cc1cn(-c2ccccc2)nc1-c1cc2ccccc2oc1=O`, the melting point was in the range of 223 to 225 °C. In the case of `O=C1CNC(=O)N1CCBr`, the melting point lay in the range of 134 to 136 °C. With `Cc1cc(N)ccc1C(=O)N(C)C`, the melting point was in the range of 162 to 164 °C. As to `Cc1ccc(-c2n[nH]c(=O)c3ccccc23)cc1C`, the melting point is 252 to 254 °C.

In the case of `COc1ccc(C(C)=CC(=O)O)cc1`, the melting point lay in the range of 108 to 110 °C. Take `N#CCc1cc(F)cc2c1OCOC2`: the melting point was in the range of 75 to 77 °C.

Take `CCNC1=NCC(c2ccccc2)S1` (centres undefined): the melting point was in the range of 99 to 101 °C.

In turn, `CCc1cc2c(n1Cc1ccccc1)CCCC2=O` returned a melting point of 59 to 61 °C.

Take `CCOC(=O)C1=C(C)NC(=O)NC1CCl` (centres undefined): the melting point lay within 169 to 171 °C. The molecule `CC(=O)Nc1ccc(CO)cc1` displayed a melting point of 117 to 119 °C. `O=C(O)c1ccccc1COc1ccccc1C(=O)O`: the melting point is 199 to 201 °C.

For the molecule `CC(C)c1ccc(O)c(C(=O)O)c1`, the melting point lay within 123 to 125 °C. For `Nc1nnc(-c2cccc3ccccc23)o1`, the melting point fell in the range of 184 to 186 °C.

As for `CCCc1nnc(N)s1`, the melting point lay within 198 to 202 °C. In turn, `O=C(O)c1ccc(-c2cnccn2)cn1` came in with a melting point of 199 to 201 °C. As to `Fc1ccccc1Nc1nnc(S)s1`, the melting point fell in the range of 170 to 172 °C. `Brc1cccc2[nH]ncc12` yielded a melting point of 165 to 167 °C.
